Reference: patent US20230285258A1, “A SUNSCREEN FORMULATION” (priority 2019, published 2023)

Key:
[1] = formulation containing 10%, 2 mg/cm^2 daily for a week, cited from earlier work
[2] = Urine samples collected in 2007-2009 from Californian females; type: in vivo, human; conditions: from 22.9 ng/mL to 200 ng/mL
Protocol: Since the first day of sunscreen usage in 1930s, the exposure to sunscreen agents has begun. Initially the scope and frequency of the sunscreen usage among the human population was very limited. Therefore, the levels of UV filters found in human samples were usually low. However, for the last 20 years, the situation changed dramatically. In one epidemiological study conducted in 2003-2004, 2517 urine samples from United States (US) general population were analyzed for the presence of oxybenzone (benzophenone-3, bp-3), as part of the 2003-2004 National Health and Nutrition Examination Survey [A.M. Calafat, L.Y.Wong, X.YE, J.A.Reidy, L.L.Needham, Concentrations of the sunscreen agent benzophenone-3 in residents of the United States: National Health and nutrition Examination Survey 2003-2004, Environ. Health Perspect, 116(2008)893-897]. Oxybenzone was detected in 97% of the all samples with mean concentration of 22.9 ng/ml and 95th percentile concentration of 1040 ng/ml. As the data indicated the sunscreen agent occurrences is widespread. […] 543(2016)28-36]. […]

[3] = Californian females 2007-2009; cited from earlier work
[4] = US general population 2003-2004; cited from earlier work
[5] = Mice skin penetration test (ointment on shaved back, plasma HPLC)
Protocol: Mice preparation and blood sample taking: A group of mice ranging from 16 to 60 were fed with adequate food and water for 3 days. Twelve hours before the test the food was removed, and only water was given. Usually 12 mice were randomly selected with 2 mice assigned for each time points of 5, 15, 30, 60, 90, 120 minutes. Sometimes 3 mice may be selected for certain sample time points. Two hours before the test the mice were subjected to anesthesia and the hair on the back (2.5--3.0 cm^2) was removed. After recovering from anesthesia mice will be applied with testing ointment sample. The exact same testing procedures will be carried out with the control standard sample. At 5, 15, 30, 60, 90, 120 min. Blood sample (1 mL) will be collected after removing the eyes.
Blood sample pretreatment: after the blood sample was taken, it was immediately subjected to centrifugation 10 min. at 12000 rpm, supernatant plasma layer was taken, preserved at -20° C. for later use.
Blood sample preparation: Accurately transfer 150 µL plasma sample to a 1.5 mL EP test tube. Add methanol and acetonitrile 200 µL, respectively. Vertex mix for 1 min., then centrifuge for 10 min. at 12000 rpm. Precisely transfer the supernatant solution to another test tube. At 40° C. blow N2 through to dryness. To the solids left add methanol 150 µL, vertex mix for 1 min. centrifuge at 12000 rpm for 10 min. Supernatant solution was used directly for HPLC analysis.
(4-Aminomethoxy-2-hydroxy-phenyl)-phenyl-methanone-PAA-OMe-OPr(40): Column: C18 RP column (250 × 4.6 mm, 5 µm); column temperature: 25° C.; mobile phase: MeOH:0.05% Formic Acid = 70:30; Flow rate: 1.0 mL/min.; Wavelength: 310 nm; Injection volume: 20 L;
1-[4-(3-Amino-propoxy)-2-hydroxy-phenyl1-3-(4-tert-butyl-phenyl)-propane)-1,3-dione-PAA-OMe-OPr(40): Column: C18 RP column (250 × 4.6 mm, 5 m); column temperature: 25° C.; mobile phase: MeOH:0.05% Formic Acid = 80:20; Flow rate: 1.0 mL/min.; Wavelength: 360 nm; Injection volume: 20 µL; […]

Molecule	mean urine concentration, females ([1]; adults)	maximum plasma concentration, females [1]	maximum plasma concentration, males [1]	mean urine concentration, males ([1]; adults)	increase of average concentration in urine sample compared to the 2003-2004 study [2]	average level in urine samples [3]	highest level in urine samples [3]	95th percentile concentration in urine [4]	mean concentration in urine [4]	hydrolysis in the plasma ([5]; inferred from mice blood samples after topical application)	sunscreen agent detected in plasma/blood samples by HPLC ([5]; mice, samples at 5, 15, 30, 60, 90, 120 min after topical application)	skin penetration of the sunscreen agent ([5]; topical test formulation on mice back, plasma at 5-120 min, compared with control formulation)
Cc1ccc(C=C2C(=O)C3(C)CCC2C3(C)C)cc1 (stereo not drawn) [4-methylbenzylidene camphor]	5 ng/mL	20 ng/mL	20 ng/mL									
CCCCC(CC)COC(=O)C=Cc1ccc(OC)cc1 (stereo not drawn) [octyl methoxycinnamate]	5 ng/mL	10 ng/mL	2 ng/mL	8 ng/mL								
COc1ccc(C(=O)c2ccccc2)c(O)c1 [oxybenzone]	60 ng/mL	200 ng/mL	300 ng/mL		more than 9 folds	around 200 ng/ml	up to 13000 ng/ml	1040 ng/mL	22.9 ng/mL			
Octandioic Oxybenzone Ester										rapid hydrolysis	no octandioic oxybenzone esters was detected	skin penetration of octandioic oxybenzone ester
